This note sets out measurements from patent EP0900210B1, “ANTIVIRALLY ACTIVE HETEROCYCLIC AZAHEXANE DERIVATIVES” (Novartis AG, priority 1996, dated 1997).

One series concerns the target T1, HIV-1-protease (Human immunodeficiency virus type 1 group M subtype B, UniProt P04585).
T1 construct: made in house
The series is described as follows: Inhibition of HIV-1-protease with icosapeptide substrate […] (HPLC). It is filed as biochemical. Here is the method: The inhibitory action of the compounds of formula I on the proteolytic activity of HIV-1-protease can be shown, for example, according to known procedures (see A. D. Richards et al., J. Biol. Chem. 265(14), 7733-7736 (1990)). In that method the inhibition of the action of HIV-1-protease (preparation: see S. Billich et al., J. Biol. Chem. 263(34), 17905-17908 (1990)) is measured in the presence of the icosapeptide […] (a synthetic substrate of HIV-1-protease, prepared by peptide synthesis in accordance with known procedures (see J. Schneider et al., Cell 54, 363-368 (1988)), which contains as substrate analogue one of the cleavage sites of the gag-precursor protein (natural substrate of HIV-1-protease). That substrate and its cleavage products are analysed by high performance liquid chromatography (HPLC).
The test compound is dissolved in dimethyl sulfoxide. The enzymatic test is carried out by adding suitable dilutions of the inhibitor in 20 mM β-morpholinoethanesulfonic acid (MES) buffer pH 6.0 to the test mixture. That mixture consists of the above-mentioned icosapeptide (122 µM) in 20 mM MES-buffer pH 6.0. 100 µl are used per test batch. The reaction is started by the addition of […] of HIV-1-protease solution and is stopped after one hour's incubation at 37°C by the addition of 10 µl of 0.3M HClO4. After centrifugation of the sample at 10 000 x g for 5 minutes, 20 µl of the resulting supernatant are applied to a 125 x 4.6 mm Nucleosil® C18-5m-HPLC column (reversed-phase material supplied by Macherey & Nagel, Düren, FRG, based on silica gel that has been charged with C18alkyl chains). The uncleaved icosapeptide and its cleavage products are eluted from the column by means of the following gradient: 100 % eluant 1 → 50 % eluant 1 + 50 % eluant 2 (eluant 1: 10 % acetonitrile, 90 % H2O, 0.1 % trifluoroacetic acid (TFA); eluant 2: 75 % acetonitrile, 25 % H2O, 0.08 % TFA) for 15 minutes, throughflow rate 1 ml/min. The quantification of the eluted peptide fragments is carried out by measuring the peak height of the cleavage product at 215 nm.
Using the test system described above with the icosapeptide […], the IC50 values given below are obtained for the following Examples: […]

The test system of a further series is 46I/47V/50V (VX478). The experiment in a line: Transient DNA transfection assay in HeLaT4 cells, other resistant strains. To be noted: 10nM; strains e.g. 46I/47V/50V (VX478); not quantified. It is filed as cell-based, HIV-1. The text has this: (§1) By way of PCR-supported mutagenesis and cloning, HIV-1 protease mutants are generated that are based on the infectious clone pNL4-3 (freely available via the "NIH AIDS reference and reagent program", the original reference is A. Adachi et al. J. Virol (1986) 59, 284-91 - but it can, of course, be any other HIV clone, or even clinical material, provided that comparability is ensured). […] The cloned fragments are, for example, only 500 base pairs in length, all of the remainder being unchanged. By using mutations in always the same clone, direct comparability is ensured, which would not be the case in a direct comparison of clinical samples or of different HIV clones. […] That system is used as a transient DNA transfection system for tests: • 1) in order to identify possible cross-resistances of protease variants to several protease inhibitors; and • 2) in order to establish the potency and resistance profile of novel inhibitor candidates.
(§2) Instead of the strains mentioned, there may be used any human T4-positive cells, such as the HeLa T4 cells, deposited under that name by Richard Axel and Paul Maddon in "NIH AIDS reference and reagent program" and obtainable via that source.

The subject of another series is HIV-1/MN. The experiment in a line: Protection of MT-2 cells against HIV infection (reverse transcriptase activity in supernatant). It is filed as cell-based. Particulars: Human immunodeficiency virus 1, MT2, 96 h; read-out: ED90 (the source's name).
In the next series the test system is 451/76F strain. To be noted: 451/76F strain established against Lasinavir; comparison with saquinavir, indinavir, ritonavir.
Source text: as §1, §2

Series [1] relates to HIV-1 (infectious clone pNL4-3). The experiment in a line: Transient DNA transfection assay in HeLaT4 cells, in vitro potency. It is filed as cell-based. To be noted: Human immunodeficiency virus 1, HeLaT4.
Source text: as §1, §2

A short description of series [2]: Pharmacokinetics: plasma level in mice after oral administration. It is filed as in vivo, female BALB/c mice. To be noted: mouse, oral administration of 120 mg/kg. Here is the method:
The blood is centrifuged (12 000 x g, 5 min) and the plasma removed.
The flow rate is 1 ml/min.

Where [3] appears, read: icosapeptide […] 122 µM, 20 mM MES pH 6.0, one hour at 37°C, read-out: IC50.

Where two headings read alike, the source gives them in different places.

Procedure for HIV-1/MN: For this test, MT-2-cells infected with HIV-1/MN are used. MT-2-cells have been transformed with HTLV-1 (a virus causing leukaemia) and a continuous producer thereof; they are therefore especially sensitive to the cytopathogenic effect of HIV. MT-2-cells can be obtained via the AIDS Research and Reference Reagent Program, Division of AIDS, NIAID, NIH from Dr. Douglas Richman (see J. Biol. Chem. 263, 5870-5875 (1988) and also Science 229, 563-566 1985)). The MT-2-cells are cultured in RPMI 1640-medium (Gibco, Scotland; RPMI comprises an amino acid mixture without glutamine) supplemented with 10% heat-inactivated foetal calf serum, glutamine and standard antibiotics. In all cases the cells, and also the virus stock solution used for the infection (HIV-1/MN), are free of mycoplasms. […] The titre of the HIV-1/MN virus stock solution (determined by titration onto MT-2-cells) is 4.2 x 10^5 TCID50/ml (TCID50 = Tissue Culture Infective Dose = dose that infects 50 % of the MT-2-cells). […] Prior to the test, 0.1 % (v/v) [alpha-^32P]dTTP is added to aliquots of the solution in order to establish a radioactivity of 10 µCi/ml.
After mixing, the plate is incubated for 2 hours at 37°C. […] The radioactivity on the filters is measured in a Matrix Packard 96-well counter (Packard, Zürich, Switzerland). […]

For `CC[C@H](C)[C@H](NC(=O)OC)C(=O)NN(Cc1ccc(-c2cnccn2)cc1)C[C@H](O)[C@H](Cc1ccccc1)NC(=O)[C@@H](NC(=O)OC)C(C)C` [Example 41, 1-[4-(Pyrazin-2-yl)-phenyl]-4(S)-hydroxy-2-[N-(N-methoxycarbonyl-(L)-iso-leucyl)amino]-5(S)-[N-(N-methoxycarbonyl-(L)-valyl)amino]-6-phenyl-2-azahexane], on HIV-1-protease (setting [3]), the IC50 came out at 32 nM.

In the case of `COC(=O)N[C@H](C(=O)N[C@@H](Cc1ccccc1)[C@@H](O)CN(Cc1ccc(-c2cnccn2)cc1)NC(=O)[C@@H](NC(=O)OC)C(C)(C)C)C(C)C` [Example 42, 1-[4-(Pyrazin-2-yl)-phenyl]-4(S)-hydroxy-2-[N-(N-methoxycarbonyl-(L)-tert-leucyl)amino]-5(S)-[N-(N-methoxycarbonyl-(L)-valyl)amino]-6-phenyl-2-azahexane], the IC50 at HIV-1-protease (setting [3]) is 15 nM.

As to `CC[C@H](C)[C@H](NC(=O)OC)C(=O)N[C@@H](Cc1ccccc1)[C@@H](O)CN(Cc1ccc(-c2cnccn2)cc1)NC(=O)[C@@H](NC(=O)OC)[C@@H](C)CC` [Example 43, 1-[4-(Pyrazin-2-yl)-phenyl]-4(S)-hydroxy-5(S)-2,5-bis[N-(N-methoxycarbonyl-(L)-iso-leucyl)amino]-6-phenyl-2-azahexane], on HIV-1-protease (setting [3]), the IC50 came out at 37 nM.

As for `COC(=O)N[C@H](C(=O)N[C@@H](Cc1ccccc1)[C@@H](O)CN(Cc1ccc(-c2cccs2)cc1)NC(=O)[C@@H](NC(=O)OC)C(C)C)C(C)C` [Example 45, 1-[4-(Thiophen-2-yl)-phenyl]-4(S)-hydroxy-5(S)-2,5-bis[N-(N-methoxycarbonyl-(L)-valyl)amino]-6-phenyl-2-azahexane], at HIV-1-protease (setting [3]), the IC50 was 12 nM.

For the compound `COC(=O)N[C@H](C(=O)N[C@@H](Cc1ccccc1)[C@@H](O)CN(Cc1ccc(-c2ccccn2)cc1)NC(=O)[C@@H](NC(=O)OC)C(C)(C)C)C(C)(C)C` [Example 46, 1-[4-(Pyridin-2-yl)-phenyl]-4(S)-hydroxy-5(S)-2,5-bis[N-(N-methoxycarbonyl-(L)-tert-leucyl)amino]-6-phenyl-2-azahexane], the “activity compared with other strains” value in the series with 46I/47V/50V (VX478) was “more potent (not quantified) than that of saquinavir, ritonavir and indinavir”. Moreover, the EC90 with HIV-1/MN was 3 nM. Besides, the IC50 on HIV-1-protease (setting [3]) is 26 nM. The “activity against a resistant variant” value with 451/76F strain was “comparable with saquinavir and better than that of indinavir”. The IC90 in series [1] is < 30 nM. In series [2] (30 min after administration), this compound displayed a concentration at 0.5 h of 21.8 µM. Also, in series [2] (90 min after administration), the concentration at 1.5 h was 31.8 µM.

Consider `CC[C@H](C)[C@H](NC(=O)OC)C(=O)N[C@@H](Cc1ccccc1)[C@@H](O)CN(Cc1ccc(-c2ccccn2)cc1)NC(=O)[C@@H](NC(=O)OC)[C@@H](C)CC` [Example 47, [4-(Pyridin-2-yl)-phenyl]-4(S)-hydroxy-5(S)-2,5-bis[N-(N-methoxycarbonyl-(L)-iso-leucyl)amino]-6-phenyl-2-azahexane], for which, on HIV-1-protease (setting [3]), the IC50 turned out to be 40 nM.

`COC(=O)N[C@H](C(=O)NN(Cc1ccc(-c2ccccn2)cc1)C[C@H](O)[C@H](Cc1ccccc1)NC(=O)[C@@H](NC(=O)OC)C(C)(C)C)C(C)C` [Example 48, 1-[4-(Pyridin-2-yl)-phenyl]-4(S)-hydroxy-2-N-(N-methoxy-carbonyl-(L)-valyl)amino-5(S)-N-(N-methoxycarbonyl-(L)-tert-leucyl)amino-6-phenyl-2-azahexane]: at HIV-1-protease (setting [3]), the IC50 was 31 nM.

On HIV-1-protease, `COC(=O)N[C@H](C(=O)N[C@@H](Cc1ccccc1)[C@@H](O)CN(Cc1ccc(-c2ccccn2)cc1)NC(=O)[C@@H](NC(=O)OC)C(C)(C)C)C(C)C` [Example 49, 1-[4-(Pyridin-2-yl)-phenyl]-4(S)-hydroxy-2-N-(N-methoxy-carbonyl-(L)-tert-leucyl)amino-5(S)-N-(N-methoxycarbonyl-(L)-valyl)amino-6-phenyl-2-azahexane] registered an IC50 of 20 nM.

As to `CC[C@H](C)[C@H](NC(=O)OC)C(=O)N[C@@H](Cc1ccccc1)[C@@H](O)CN(Cc1ccc(-c2ccccn2)cc1)NC(=O)[C@@H](NC(=O)OC)C(C)C` [Example 50, 1-[4-(Pyridin-2-yl)-phenyl]-4(S)-hydroxy-2-N-(N-methoxy-carbonyl-(L)-valyl)amino-5(S)-N-(N-methoxycarbonyl-(L)-iso-leucyl)amino-6-phenyl-2-azahexane], the IC50 against HIV-1-protease was found to be 28 nM.

`CC[C@H](C)[C@H](NC(=O)OC)C(=O)NN(Cc1ccc(-c2ccccn2)cc1)C[C@H](O)[C@H](Cc1ccccc1)NC(=O)[C@@H](NC(=O)OC)C(C)C` [Example 51, 1-[4-(Pyridin-2-yl)-phenyl]-4(S)-hydroxy-2-N-(N-methoxy-carbonyl-(L)-iso-leucyl)amino-5(S)-N-(N-methoxycarbonyl-(L)-valyl)amino-6-phenyl-2-azahexane] displayed an IC50 on HIV-1-protease of 34 nM.

As to `CCOC(=O)N[C@H](C(=O)NN(Cc1ccc(-c2ccccn2)cc1)C[C@H](O)[C@H](Cc1ccccc1)NC(=O)[C@@H](NC(=O)OC)C(C)C)C(C)C` [Example 52, 1-[4-(Pyridin-2-yl)-phenyl]-4(S)-hydroxy-2-N-(N-ethoxy-carbonyl-(L)-valyl)-amino-5(S)-N-(N-methoxycarbonyl-(L)-valyl)amino-6-phenyl-2-azahexane], the IC50 on HIV-1-protease (setting [3]) came out at 34 nM.
